Laboratory results: patent US4235886A, “Cyclic hexapeptide somatostatin analogs” (Merck & Co., Inc., priority 1979, dated 1980)
Non-standard residues stand in square brackets, D forms with d. Residues, ends and D or L forms follow the SMILES beside them. dTrp(5-F) = N[C@H](Cc1c[nH]c2ccc(F)cc12)C(=O)O; Orn = NCCC[C@H](N)C(=O)O; Abu = CC[C@H](N)C(=O)O

How the values were obtained:
[1] = test system: Rat pituitaries (growth hormone release); assay: In vitro inhibition of growth hormone release from cultured rat pituitary cells; type: cell-based; settings: multiples or fractions of the effect of somatostatin (= 1), fiducial limits in parentheses, 4 hours incubation, radioimmunoassay
Protocol: The instant cyclic hexapeptide analogs of somatostatin are tested and compared with the effects of somatostatin in an in vitro test for the inhibition of growth hormone. The test is described as follows:
"Rat pituitaries were isolated according to the procedures of Vale and Grant "In vitro Pituitary Hormone Secretion Assay for Hypophysiotropic Substances" in Methods in Enzymology. Vol. XXXVII, eds. O'Malley, B. W. and Hardman, J. G. (Academic Press, Inc., New York) pp. 5-93 (1975).
After 4 days in culture, the cells were washed and incubated for 4 hours in Dulbecco-modified Eagle's medium in the presence or absence of graded doses of each analog or somatostatin. The medium was then collected for subsequent growth hormone determination by a double antibody radioimmunoassay for rat growth hormone."
The test results for some of the compounds of this invention are recorded below with the results for somatostatin listed first and given the arbitrary value of 1. The results for the instant compounds are given as multiples or fractions of the effect of somatostatin. The numbers in parentheses are the fiducial limits for the number preceding. The first of the instant compounds listed is the compound prepared in Example 1-5. The compound is written slightly different, however, to conform to the order of the amino acids found in somatostatin.

[2] = test system: pentagastrin evoked gastric secretion in the chronic fistula dog; assay: Inhibition of pentagastrin evoked gastric secretion in the chronic fistula dog; type: in vivo; settings: dose 0.8 μg/ml./min., infusion 0-60 min, pentagastrin 2.5 μg./kg./hour i.v., relative to placebo trial; for Gastric Secretion % Inhibition, Acid Concentration, 0-30 / Gastric Secretion % Inhibition, Vol., 0-30: 0-30 min; for Gastric Secretion % Inhibition, Acid Concentration, 30-60 / Gastric Secretion % Inhibition, Vol., 30-60: 30-60 min; for Gastric Secretion % Inhibition, Acid Concentration, 60-90 / Gastric Secretion % Inhibition, Vol., 60-90: 60-90 min; for Gastric Secretion % Inhibition, Acid Concentration, 90-120 / Gastric Secretion % Inhibition, Vol., 90-120: 90-120 min; for Gastric Secretion % Inhibition, Vol., 0-30 / Gastric Secretion % Inhibition, Vol., 30-60 / Gastric Secretion % Inhibition, Vol., 60-90 / Gastric Secretion % Inhibition, Vol., 90-120: volume
Protocol: The effects of the instant cyclichexapeptide analogs of somatostatin are determined by the following procedure.
Compounds were tested for their ability to inhibit pentagastrin evoked gastric secretion in the chronic fistula dog. Female beagle dogs with a chronic gastric fistula were given pentagastrin (2.5 μg./kg./hour, i.v. from -60 to 120 min.) and gastric outputs were collected via the fistula cannula. Samples were analyzed at 30 minute intervals for volume (ml.) and titratable acid (mEq/L) (Titration to pH 7 with 0.01 N NaOH); total acid output (mEq) was calculated as the production of output volume and acid concentration. Test compounds were infused at a constant rate from 0 to 60 minutes. Data have been expressed as percent change of total acid output relative to a placebo trial in the same animals.

## C[C@@H]1NC(=O)[C@@H]2CCCN2C(=O)[C@H](Cc2ccccc2)NC(=O)[C@H]([C@@H](C)O)NC(=O)[C@H](CCCCN)NC(=O)[C@@H](Cc2c[nH]c3ccccc23)NC1=O [Cyclo(Pro-Ala-d-Trp-Lys-Thr-Phe)] (cyclo(A[dW]KTFP))
[1]
  Growth Hormone Release Inhibition In Vitro: 0.19 (0.1-0.38)

## C[C@@H](O)[C@@H]1NC(=O)[C@H](CCCCN)NC(=O)[C@@H](Cc2c[nH]c3ccc(F)cc23)NC(=O)[C@H](Cc2ccccc2)NC(=O)[C@@H]2CCCN2C(=O)[C@H](Cc2ccccc2)NC1=O [Cyclo(Pro-Phe-D-5F-Trp-Lys-Thr-Phe)] (cyclo(FPF[dTrp(5-F)]KT))
[1]
  Growth Hormone Release Inhibition In Vitro: 2.4 (2.1-2.8)

## CC(C)C[C@@H]1NC(=O)[C@@H]2CCCN2C(=O)[C@H](Cc2ccccc2)NC(=O)[C@H]([C@@H](C)O)NC(=O)[C@H](CCCCN)NC(=O)[C@@H](Cc2c[nH]c3ccccc23)NC1=O [Cyclo(Pro-Leu-D-Trp-Lys-Thr-Phe)] (cyclo(FPL[dW]KT))
[1]
  Growth Hormone Release Inhibition In Vitro: 0.29 (0.13-0.57)

## C[C@@H](O)[C@@H]1NC(=O)[C@H](CCCCN)NC(=O)[C@H](Cc2c[nH]c3ccccc23)NC(=O)[C@H](Cc2ccccc2)NC(=O)[C@@H]2CCCN2C(=O)[C@H](Cc2ccccc2)NC1=O [Cyclo(Pro-Phe-L-Trp-Lys-Thr-Phe)] (cyclo(FPFWKT))
[1]
  Growth Hormone Release Inhibition In Vitro: 1.59 (1.33-1.92)

## C[C@@H](O)[C@@H]1NC(=O)[C@H](CCCCN)NC(=O)[C@@H](Cc2c[nH]c3ccccc23)NC(=O)[C@H](Cc2ccccc2)NC(=O)[C@@H]2CCCN2C(=O)[C@H](Cc2ccccc2)NC1=O [Cyclo(Pro-Phe-D-Trp-Lys-Thr-Phe)] (cyclo(PF[dW]KTF))
[1]
  Growth Hormone Release Inhibition In Vitro: 1.71 (1.31-2.32)
[2]
  Gastric Secretion % Inhibition, Acid Concentration, 0-30: 18%
  Gastric Secretion % Inhibition, Acid Concentration, 30-60: 47%
  Gastric Secretion % Inhibition, Acid Concentration, 60-90: 54%
  Gastric Secretion % Inhibition, Acid Concentration, 90-120: 68%
  Gastric Secretion % Inhibition, Vol., 0-30: 88%
  Gastric Secretion % Inhibition, Vol., 30-60: 98%
  Gastric Secretion % Inhibition, Vol., 60-90: 95%
  Gastric Secretion % Inhibition, Vol., 90-120: 86%

## C[C@@H](O)[C@@H]1NC(=O)[C@H](CCCN)NC(=O)[C@@H](Cc2c[nH]c3ccccc23)NC(=O)[C@H](Cc2ccccc2)NC(=O)[C@@H]2CCCN2C(=O)[C@H](Cc2ccccc2)NC1=O [Cyclo(Pro-Phe-D-Trp-Orn-Thr-Phe)] (cyclo(FPF[dW][Orn]T))
[1]
  Growth Hormone Release Inhibition In Vitro: 0.16(0.15-0.17)

## C[C@@H](O)[C@@H]1NC(=O)[C@H](CCCCN)NC(=O)[C@@H](Cc2c[nH]c3ccccc23)NC(=O)[C@H](Cc2ccc(O)cc2)NC(=O)[C@@H]2CCCN2C(=O)[C@H](Cc2ccccc2)NC1=O [Cyclo(Pro-Tyr-D-Trp-Lys-Thr-Phe)] (cyclo(FPY[dW]KT))
[1]
  Growth Hormone Release Inhibition In Vitro: 14.3 (8.3-33.0)
[2]
  Gastric Secretion % Inhibition, Acid Concentration, 0-30: 30%
  Gastric Secretion % Inhibition, Acid Concentration, 30-60: 49%
  Gastric Secretion % Inhibition, Acid Concentration, 60-90: 52%
  Gastric Secretion % Inhibition, Acid Concentration, 90-120: 27%
  Gastric Secretion % Inhibition, Vol., 0-30: 67%
  Gastric Secretion % Inhibition, Vol., 30-60: 87%
  Gastric Secretion % Inhibition, Vol., 60-90: 87%
  Gastric Secretion % Inhibition, Vol., 90-120: 64%

## NCCCC[C@@H]1NC(=O)[C@@H](Cc2c[nH]c3ccccc23)NC(=O)[C@H](Cc2ccccc2)NC(=O)[C@@H]2CCCN2C(=O)[C@H](Cc2ccccc2)NC(=O)[C@H](CO)NC1=O [Cyclo(Pro-Phe-D-Trp-Lys-ser-Phe)] (cyclo(FPF[dW]KS))
[1]
  Growth Hormone Release Inhibition In Vitro: 1.4 (1.1-1.7)

## CC[C@@H]1NC(=O)[C@H](CCCCN)NC(=O)[C@@H](Cc2c[nH]c3ccccc23)NC(=O)[C@H](Cc2ccccc2)NC(=O)[C@@H]2CCCN2C(=O)[C@H](Cc2ccccc2)NC1=O [Cyclo(Pro-Phe-D-Trp-Lys-α-ABU-Phe)] (cyclo([Abu]FPF[dW]K))
[1]
  Growth Hormone Release Inhibition In Vitro: 0.82 (0.57-1.18)

## CC(C)C[C@@H]1NC(=O)[C@H]([C@@H](C)O)NC(=O)[C@H](CCCCN)NC(=O)[C@@H](Cc2c[nH]c3ccccc23)NC(=O)[C@H](Cc2ccccc2)NC(=O)[C@@H]2CCCN2C1=O [Cyclo(Pro-Phe-D-Trp-Lys-Thr-Leu)] (cyclo(F[dW]KTLP))
[1]
  Growth Hormone Release Inhibition In Vitro: 0.16 (0.07-0.33)
